Molecular target: T1, dopamine D3 receptor (D3), Sf9 (Homo sapiens, UniProt P35462)
T1 construct: gene DRD3; full-length from pCMV5-hD3, no tag mentioned; membranes of Sf9 cells (baculovirus)
Test: [3H]spiperone competition binding, Sf9 membranes
Conditions: read-out: D3 / + NaCl

T1 sequence (P35462 whole entry): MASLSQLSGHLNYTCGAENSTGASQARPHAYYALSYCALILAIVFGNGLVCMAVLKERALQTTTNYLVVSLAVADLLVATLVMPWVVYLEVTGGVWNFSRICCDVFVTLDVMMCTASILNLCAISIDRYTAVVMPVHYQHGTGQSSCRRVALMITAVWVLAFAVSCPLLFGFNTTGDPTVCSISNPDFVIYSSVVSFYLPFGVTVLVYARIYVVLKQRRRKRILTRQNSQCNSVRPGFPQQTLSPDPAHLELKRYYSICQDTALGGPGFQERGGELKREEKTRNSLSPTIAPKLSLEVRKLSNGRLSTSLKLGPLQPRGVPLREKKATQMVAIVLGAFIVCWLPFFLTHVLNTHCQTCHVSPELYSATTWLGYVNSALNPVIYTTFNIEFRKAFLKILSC

SMILES	IC50
COc1ccccc1N1CCN(CCCCNC(=O)c2ccc(-c3ccc(C(C)=O)cc3)cc2)CC1 [GR 103691]	0.46 nM
CCCN(CCC)C1Cc2cc(OC)c(OC)cc2C1 [U 99194]	532 nM
